Common to all, as to assay type: cell-based
Data set [1] concerns Leishmania donovani intracellular amastigotes. In words: Intracellular amastigote assay in infected RAW 264.7 cells. The conditions noted are these: for Selectivity Index (CC50/IC50), amastigotes: CC50 Raw 264.7 / IC50 intracellular amastigotes; for IC50: Leishmania donovani. How it is done: Amastigote cultures were prepared as reported by Jain and colleagues. Briefly, Raw 264.7 cells (4 x 10^7 cells) were seeded in 4 chamber slides and 1 x 10^7 cells in 96 well plates and incubated for 24 hours at 37°C in 5% CO2. The RAW 264.7 cells were infected with metacyclic promastigotes (1 x 10^8 cells) at an infection ratio of 1:10 macrophage: parasites and incubated for 24 hours at 37°C in 5% CO2. The overlying medium was removed, and the monolayer intracellular amastigotes were carefully washed four times with serum free M199 to remove free parasites. Freshly prepared M199 containing 10% FBS and the test compounds at concentrations ranging from 0–50 μg/mL were added to the infected cells and incubated for 48 hours at 37°C in 5% CO2. Triplicate incubations were performed in all the experiments. The chamber slides were washed thrice after incubation with M199 without FBS. The slides were then fixed in absolute methanol for 30 sec, rehydrated in 1x PBS for 5 min and stained with DAPI for 15 min. The slides were viewed by fluorescence microscopy and the number of infected macrophages counted using ImageJ Software to determine the infectivity index and IC50 values for amastigotes.
The infected RAW 264.7 cells in the 96 wells microtiter plates were also incubated for 48 hours and washed thrice as above. Sodium dodecyl sulfate (SDS) of concentration 0.05% was added to the wells for 30 sec for controlled lysis with M199 and 10% FBS. After the 30 sec, M199 with 10% FBS was added and the plates incubated at 25°C for 72 hours for the differentiation of the rescued amastigotes to promastigotes. Following incubation, the amastigotes were subjected to MTT assay and the absorbance obtained were used to estimate IC50 values of the compounds against the amastigote forms.

Data set [2] can be described thus: Cytotoxicity of compounds on mammalian cells (MTT). The conditions noted are these: mouse, Raw 264.7 cells, read-out: Macrophages CC50 (μM) ±SD. How it is done: Raw 264.7 cells were seeded into 96-well plates at (1 x 10^6 cells) in DMEM supplemented with 10% FBS, 100 μg/mL streptomycin, 100 u/mL penicillin-G, 2g/L NaHCO3 and incubated at 37°C for 24 hours in 5% CO2. The cells were treated with 0–50 μg/mL concentrations of the phenolic compounds for 48 hours at 37°C in 5% CO2. Deferoxamine and amphotericin B at 0–50 μg/mL concentrations were used as positive controls. Cell viability was estimated by measuring the mitochondria oxidative activity by MTT assay and absorbance was read at 570 nm using Thermo Scientific Varioskan LUX. Selectivity index (SI) was calculated as the ratio of the CC50 to IC50 values.

For data set [3], the system named is Leishmania donovani promastigotes. The experiment in a line: Promastigote viability assay (MTT). The conditions noted are these: for Selectivity Index (CC50/IC50), promastigotes: CC50 Raw 264.7 / IC50 promastigotes; for IC50: Leishmania donovani, read-out: Promastigotes IC50 (μM) ± SD. As to the method:
The MTT assay was done as previously described. Briefly, promastigotes (2 x 10^5 cells) were cultured in freshly prepared M-199 medium supplemented with 10% heat inactivated fetal bovine serum in the presence or absence of varying concentrations of the phenolic compounds (0–50 μg/mL) for 72 hours at 25°C. Amphotericin B (0–50 μg/mL) and deferoxamine (0–50 μg/mL) were used as positive controls. After incubation, 5 mg/mL MTT solution was added to the promastigotes in each well and incubated for 3 hours at 25°C. In this assay, the yellow tetrazolium MTT dye was reduced to insoluble formazan crystals (purple color) in living cells using NADH as their reducing agent. Formazan crystals formed after incubation were solubilized with acidified isopropanol and incubated at 37°C for 30 min. The change in color from yellow to purple was read at an absorbance of 570 nm using Thermo Scientific Varioskan LUX. The cell viability and IC50 were determined from the concentration response curve generated using GraphPad Prism 6.0 Software.

[4] abbreviates: RAW264.7, intracellular amastigotes in RAW 264.7 cells, 48 hours, read-out: Amastigotes IC50 (μM) ± SD.

Where two headings read alike, the source gives them in different places. Where only a bound is given, the exact number is not on record here.

Take `O=C(O)/C=C/c1ccc(O)c(O)c1` [Caffeic acid, caffeic acid]: the “Selectivity Index (CC50/IC50), amastigotes” value in data set [1] was 2.29. Besides, the IC50 in data set [1] (setting [4]) was determined as 56.77 ± 0.01 µM; in data set [3] (MTT, 72 hours at 25°C) it was 58.77 ± 0.01 µM. Moreover, the CC50 at 48 h in data set [2] (Raw 264.7 macrophage cells) was 129.92 ± 0.01 µM. Also, the “Selectivity Index (CC50/IC50), promastigotes” value in data set [3] was 2.21.
`O=C(/C=C/c1ccc(O)c(O)c1)O[C@@H]1C[C@](O)(C(=O)O)C[C@@H](O)[C@H]1O` [Chlorogenic acid, chlorogenic acid]: the “Selectivity Index (CC50/IC50), amastigotes” value in data set [1] is reported as 1.11. In addition, the IC50 is 53.75 ± 0.4 µM in data set [1] (setting [4]) and 53.92 ± 0.03 µM in data set [3] (MTT, 72 hours at 25°C). Further, the CC50 at 48 h in data set [2] (Raw 264.7 macrophage cells) worked out at 59.9 ± 0.02 µM. Further, the “Selectivity Index (CC50/IC50), promastigotes” value in data set [3] is listed as 1.11.
In the case of `COc1cc(/C=C/C(=O)O)ccc1O` [Ferulic acid, ferulic acid], the “Selectivity Index (CC50/IC50), amastigotes” value in data set [1] came out at 6.30. For the same compound, the IC50 is 54.98 ± 0.01 µM in data set [1] (RAW264.7, 48 h, intracellular amastigotes in RAW 264.7 cells, 48 hours, read-out: Amastigotes IC50 (μM) ± SD) and 69 ± 0.01 µM in data set [3] (MTT, 72 hours at 25°C). Moreover, the CC50 at 48 h in data set [2] amounted to 346.7 ± 0.01 µM. Further, the “Selectivity Index (CC50/IC50), promastigotes” value in data set [3] stood at 5.02.
As to `O=C(O)c1cc(O)c(O)c(O)c1` [Gallic acid, gallic acid], in data set [1], the “Selectivity Index (CC50/IC50), amastigotes” value is on record as 0.60. Besides, the IC50 was determined as 54.65 ± 0.25 µM in data set [1] (setting [4]) and 198 ± 0.03 µM in data set [3] (MTT, 72 hours at 25°C). Further, in data set [2], the CC50 at 48 h worked out at 33.76 ± 0.02 µM. In data set [3], the “Selectivity Index (CC50/IC50), promastigotes” value is on record as 0.17.
Take `O=C(O)c1ccc(O)c(O)c1` [Protocatechuic acid, protocatechuic acid]: the IC50 in data set [1] (RAW264.7, 48 h, read-out: Amastigotes IC50 (μM) ± SD, intracellular amastigotes in RAW 264.7 cells, 48 hours) was greater than 100 µM; in data set [3] (72 h), 72.54 ± 0.01 µM. Further, in data set [2], the CC50 at 48 h was found to be 511.9 ± 0.01 µM. The “Selectivity Index (CC50/IC50), promastigotes” value in data set [3] was found to be 7.05.
For `O=C(O)c1ccccc1O` [Salicylic acid, salicylic acid], the “Selectivity Index (CC50/IC50), amastigotes” value in data set [1] was found to be 0.69. Further, the IC50 in data set [1] (setting [4]) is 90.65 ± 0.04 µM; in data set [3] (MTT, 72 hours at 25°C), 75.4 ± 0.02 µM. For the same compound, the half-maximal cytotoxic concentration (CC50) at 48 h in data set [2] (Raw 264.7 macrophage cells) amounted to 62.99 ± 0.01 µM. Besides, the “Selectivity Index (CC50/IC50), promastigotes” value in data set [3] was determined as 0.83.
Consider `COc1cc(C(=O)O)ccc1O` [Vanillic acid, vanillic acid], for which the “Selectivity Index (CC50/IC50), amastigotes” value in data set [1] turned out to be 0.19. Further, the IC50 was 69.97 ± 0.02 µM in data set [1] (setting [4]) and 68.97 ± 0.02 µM in data set [3] (MTT, 72 hours at 25°C). Further, the CC50 at 48 h in data set [2] was found to be 13.15 ± 0.01 µM. In data set [3], the “Selectivity Index (CC50/IC50), promastigotes” value turned out to be 0.19.
As for `O=C(O)C=Cc1ccc(O)cc1` [p-Coumaric acid], the IC50 in data set [1] (setting [4]) was greater than 100 µM; in data set [3] (MTT, 72 hours at 25°C) it was 76.09 ± 0.01 µM. Moreover, the CC50 at 48 h in data set [2] turned out to be 322.6 ± 0.15 µM. Further, the “Selectivity Index (CC50/IC50), promastigotes” value in data set [3] worked out at 4.24.

As usually defined, the IC50 is the midpoint of a concentration-inhibition curve. By CC50 is commonly meant the concentration that lowers cell viability or growth by half.

For the origin of these results see PMC6405172, “In vitro activity and mode of action of phenolic compounds on Leishmania donovani” (PLoS Neglected Tropical Diseases, 2019).
